Data reported in paper PMC6149664, “Synthesis and In Vitro Antimycobacterial Activity of Novel N-Arylpiperazines Containing an Ethane-1,2-diyl Connecting Chain” (Molecules : A Journal of Synthetic Chemistry and Natural …, 2017).
Converted amounts (≈) assume the structure as drawn. Like-named read-outs stand apart in the source and are kept apart here.

Legend:
[1] = tested on: M. avium subsp. paratuberculosis CIT03; assay: microbe, parasite or virus in culture; type: cell-based; details: Mycobacterium avium, 168 h, read-out: MIC, MAP CIT03
[2] = tested on: M. avium CNCTC My 330/80 (identical with ATCC 25291); assay: In vitro antimycobacterial MIC, dilution-micromethod in Šula semisynthetic medium; type: cell-based; details: Mycobacterium avium
[3] = tested on: M. kansasii 6 509/96 clinical isolate; assay: as above; type: cell-based; details: Mycobacterium kansasii, read-out: MIC, MK 6 509/96
[4] = tested on: M. tuberculosis CNCTC My 331/88 (identical with H37Rv and ATCC 2794); assay: as above; type: cell-based; details: Mycobacterium tuberculosis
[5] = tested on: M. avium intracellulare ATCC 13950; assay: In vitro antimycobacterial MIC (IC90), alamarBlue 96-well assay in Middlebrook broth; type: cell-based, Mycobacterium avium intracellulare; details: Mycobacterium avium, ATCC13950, 168 h, 7 days incubation, read-out: MIC, MAI ATCC 13950
[6] = tested on: M. kansasii CIT11/06; assay: as above; type: cell-based, Mycobacterium kansasii; details: 7 days incubation, read-out: MIC, MK CIT11/06
[7] = tested on: M. avium hominissuis CIT10/08; assay: as above; type: cell-based, Mycobacterium avium hominissuis; details: Mycobacterium avium, 168 h, 7 days incubation, read-out: MIC, MAH CIT10/08
[8] = tested on: M. kansasii CNCTC My 235/80 (identical with ATCC 12478); assay: In vitro antimycobacterial MIC, dilution-micromethod in Šula semisynthetic medium; type: cell-based, Mycobacterium kansasii
[9] = ATCC25291, 336 h, 14 d cultivation, read-out: MIC, MA My 330/88
[10] = ATCC25291, 504 h, 21 d cultivation, read-out: MIC, MA My 330/88
[11] = 336 h, 14 d cultivation, read-out: MIC, MT My 331/88
[12] = 504 h, 21 d cultivation, read-out: MIC, MT My 331/88
[13] = Mycobacterium kansasii, CIT11/06, 168 h
[14] = Mycobacterium kansasii, ATCC12478, 168 h, 7 d cultivation, read-out: MIC, MK My 235/80
[15] = Mycobacterium kansasii, ATCC12478, 336 h, 14 d cultivation, read-out: MIC, MK My 235/80
[16] = Mycobacterium kansasii, ATCC12478, 504 h, 21 d cultivation, read-out: MIC, MK My 235/80
[17] = Mycobacterium kansasii, ATCC12478, 336 h, both M. kansasii strains, depending on strain and number of days of incubation (standards: 14-d/21-d), read-out: MIC against M. kansasii My 235/80 and M. kansasii 6 509/96
[18] = both M. kansasii strains, depending on strain and number of days of incubation (standards: 14-d/21-d), read-out: MIC against M. kansasii My 235/80 and M. kansasii 6 509/96

SMILES | MIC [1] [µM] | MIC [2, 9] [µM] | MIC [2, 10] [µM] | MIC ([3]; 168 h, 7 d cultivation) [µM] | MIC ([3]; 336 h, 14 d cultivation) [µM] | MIC ([3]; 504 h, 21 d cultivation) [µM] | MIC ([4]; 336 h, 14-d/21-d cultivation, read-out: MIC against M. tuberculosis CNCTC My 331/88) [µM] | MIC [4, 11] [µM] | MIC [4, 12] [µM] | MIC [5] [µM] | MIC [6, 13] [µM] | MIC [7] [µM] | MIC [8, 14] [µM] | MIC [8, 15] [µM] | MIC [8, 16] [µM] | MIC [6] [µM] | MIC ([2]; ATCC25291, 336 h, 14-d/21-d, read-out: MIC against M. avium CNCTC My 330/80) [µM] | MIC [8, 17] [µM] | MIC [8, 18] [µM]
NNC(=O)c1ccncc1 [INH, isonicotinic acid hydrazide, reference compound] | > 1820 | > 250 | > 250 | 4 (≈ 0.549 µg/mL) | 8 (≈ 1.1 µg/mL) | 8 (≈ 1.1 µg/mL) | 0.5 (≈ 0.0686 µg/mL) | 0.5 (≈ 0.0686 µg/mL) | 0.5 (≈ 0.0686 µg/mL) | > 1820 | > 1820 | > 1820 | > 250 | > 250 | > 250 |  |  |  | 
O=C(O)c1cn(C2CC2)c2cc(N3CCNCC3)c(F)cc2c1=O [CPX, ciprofloxacin, reference compound] |  |  |  |  |  |  |  |  |  |  | > 91 |  |  |  |  | >91 |  |  | 
CC[C@@H](CO)NCCN[C@@H](CC)CO [EMB, ethambutol, reference compound] |  | 16 (≈ 3.27 µg/mL) | 16 (≈ 3.27 µg/mL) | 1 (≈ 0.204 µg/mL) | 2 (≈ 0.409 µg/mL) | 2 (≈ 0.409 µg/mL) |  | 1 (≈ 0.204 µg/mL) | 2 (≈ 0.409 µg/mL) |  |  |  | 1 (≈ 0.204 µg/mL) | 2 (≈ 0.409 µg/mL) | 2 (≈ 0.409 µg/mL) |  | 16 (≈ 3.27 µg/mL) | 1 (≈ 0.204 µg/mL) | 2 (≈ 0.409 µg/mL)
NC(=O)c1cnccn1 [PZA, pyrazinamide, reference compound] | > 2030 |  |  |  |  |  |  |  |  | > 2030 | > 2030 | 487 (≈ 60 µg/mL) |  |  |  |  |  |  | 
CC1COc2c(N3CCN(C)CC3)c(F)cc3c(=O)c(C(=O)O)cn1c23 (stereo not shown) [OFLX, ofloxacin, reference compound] |  | 32 (≈ 11.6 µg/mL) | 62.5 (≈ 22.6 µg/mL) | 0.5 (≈ 0.181 µg/mL) | 0.5 (≈ 0.181 µg/mL) | 1 (≈ 0.361 µg/mL) |  | 1 (≈ 0.361 µg/mL) | 2 (≈ 0.723 µg/mL) |  |  |  | 0.5 (≈ 0.181 µg/mL) | 1 (≈ 0.361 µg/mL) | 1 (≈ 0.361 µg/mL) |  |  | 0.5 (≈ 0.181 µg/mL) | 1 (≈ 0.361 µg/mL)
